# Columns and labels:
# [1] = Solubility trials of rutin in water, ethanol, methanol and NADES, quantified by HPLC-DAD; type: physicochemical; conditions: 22 °C
# Procedure: Samples were stirred on a magnetic stirrer (Stuart, Bibby Scientific Ltd., Stone, Staffordshire, UK) for one hour at room temperature and centrifuged for 21 min at 13,000 rpm with Eppendorf 5415 R centrifuge The time of one-hour stirring was chosen because it was sufficient for all the prepared mixtures to reach maximum concentration of rutin. […] Calibration curve was obtained injecting standard solution at different concentrations namely (50, 25, 10, 5 and 1 μg/mL) Calibration curve was as follows y = 17.832 x + 9.7822 (R^2 was 0.9998). Limit of Quantification was 1 μg/mL. For HPLC-DAD a series 1260 HPLC instrument (Agilent, Cernusco Sul Naviglio (MI), Italy) equipped with a quaternary pump, a diode-array detector, an auto sampler and a column oven compartment was used. Analyses were performed on Eclipse XDB C8 column (5 μm, 4.6 mm × 150 mm, Agilent). The mobile phase was (A) water-formic acid (99.9:0.1, v/v) and (B) acetonitrile. A gradient program was used as follows: [0 → 10[…] (60:40) 10 → 11[…] (0:100) 11 → 12[…] (0:100) 12 → 13[…] (90:10) 13 → 14[…] (90:10)]. The mobile phase flow rate was 1.2 mL/min and the injection volume was 10 μL. The chromatogram was recorded at 350 nm and spectral data for all peaks were obtained in the range of 190-400 nm. The retention time of rutin in the analysis conditions was 3.8 min.
# [2] = set-up: method as in PMID 11151743; conditions: healthy volunteers, various dose levels; quercetin glucuronides and/or sulfates measured; cited from earlier work
# [3] = set-up: method as in PMID 25030991; conditions: rat plasma; 2.5 mg/kg sublingual vein administration; cited from earlier work
smiles,measurement,setting,value
C[C@@H]1O[C@@H](OC[C@H]2O[C@@H](Oc3c(-c4ccc(O)c(O)c4)oc4cc(O)cc(O)c4c3=O)[C@H](O)[C@@H](O)[C@@H]2O)[C@H](O)[C@H](O)[C@H]1O [rutin],solubility at 1 h,"[1]; Citric Acid–Fructose 1:1 (NADES mixture 7), organic solvent or mixture, thermodynamic from solid, solvent mixture 7 Citric Acid–Fructose 1:1",205 ± 5.1 µg/mL
same,solubility at 1 h,"[1]; Glucose–Citric Acid–Water 1:1:1 (NADES mixture 9), solvent mixture 9 Glucose–Citric Acid–Water 1:1:1",175 ± 3.7 µg/mL
same,solubility at 1 h,"[1]; Glucose–Fructose–Sorbitol 1:1:1 (NADES mixture 6), organic solvent or mixture, thermodynamic from solid, solvent mixture 6 Glucose–Fructose–Sorbitol 1:1:1",90.8 ± 1.9 µg/mL
same,solubility at 1 h,"[1]; Glucose–Fructose–Water 1:1:1 (NADES mixture 5), organic solvent or mixture, thermodynamic from solid, solvent mixture 5 Glucose–Fructose–Water 1:1:1",81.9 ± 2.5 µg/mL
same,solubility at 1 h,"[1]; Proline–Glutamic Acid 1:1 (NADES mixture 10), solvent mixture 10 Proline–Glutamic Acid 1:1",2260 ± 63.4 µg/mL
same,solubility at 1 h,"[1]; Proline–Glutamic Acid 2:1 (NADES mixture 11), organic solvent or mixture, thermodynamic from solid, solvent mixture 11 Proline–Glutamic Acid 2:1",2940 ± 118 µg/mL
same,solubility at 1 h,"[1]; Tartaric Acid–Fructose 1:1 (NADES mixture 8), organic solvent or mixture, thermodynamic from solid, solvent mixture 8 Tartaric Acid–Fructose 1:1",504 ± 16.4 µg/mL
same,solubility at 1 h,"[1]; ethanol, solvent Ethanol, mean ± SD of 3",2370 ± 93.2 µg/mL
same,solubility at 1 h,"[1]; methanol, solvent Methanol, mean ± SD of 3",2050 ± 89.7 µg/mL
same,solubility at 1 h,"[1]; natural deep eutectic solvent (NADES), organic solvent or mixture, thermodynamic from solid, solvent mixture 1 Urea–Glucose–Citric Acid 1:1:1",379 ± 8.5 µg/mL
same,solubility at 1 h,"[1]; natural deep eutectic solvent (NADES), organic solvent or mixture, thermodynamic from solid, solvent mixture 2 Urea–Glucose–Fructose 1:1:1",961 ± 30.6 µg/mL
same,solubility at 1 h,"[1]; natural deep eutectic solvent (NADES), organic solvent or mixture, thermodynamic from solid, solvent mixture 3 Urea–Tartaric Acid 1:1",680 ± 19 µg/mL
same,solubility at 1 h,"[1]; natural deep eutectic solvent (NADES), organic solvent or mixture, thermodynamic from solid, solvent mixture 4 Urea–Choline chloride 1:1",1880 ± 48.1 µg/mL
same,solubility at 1 h,"[1]; natural deep eutectic solvent (NADES), organic solvent or mixture, thermodynamic from solid, solvent mixture 12 Proline–Oxalic Acid 1:1",749 ± 22.5 µg/mL
same,solubility at 1 h,"[1]; natural deep eutectic solvent (NADES), organic solvent or mixture, thermodynamic from solid, solvent mixture 14 Ornitine–Tartaric Acid 1:1",210 ± 5.7 µg/mL
same,solubility at 1 h,"[1]; natural deep eutectic solvent (NADES), organic solvent or mixture, thermodynamic from solid, solvent mixture 15 Arginine–Tartaric Acid 1:1",363 ± 11.2 µg/mL
same,solubility at 1 h,"[1]; natural deep eutectic solvent (NADES), organic solvent or mixture, thermodynamic from solid, solvent mixture 16 Citrulline–Tartaric Acid 1.1",370 ± 13.1 µg/mL
same,solubility at 1 h,"[1]; natural deep eutectic solvent (NADES), organic solvent or mixture, thermodynamic from solid, solvent mixture 17 Arginine–Oxalic Acid 1:1",414 ± 13.6 µg/mL
same,solubility at 1 h,"[1]; natural deep eutectic solvent (NADES), organic solvent or mixture, thermodynamic from solid, solvent mixture 18 Proline–Malic Acid 1:1",900 ± 31.1 µg/mL
same,solubility at 1 h,"[1]; natural deep eutectic solvent (NADES), organic solvent or mixture, thermodynamic from solid, solvent mixture 19 Arginin–Malic Acid 1:1",457 ± 17.8 µg/mL
same,solubility at 1 h,"[1]; natural deep eutectic solvent (NADES), organic solvent or mixture, thermodynamic from solid, solvent mixture 20 Ornitine–Malic Acid 1:1",408 ± 14.8 µg/mL
same,solubility at 1 h,"[1]; natural deep eutectic solvent (NADES), organic solvent or mixture, thermodynamic from solid, solvent mixture 21 Citrulline–Malic Acid 1:1",454 ± 18.5 µg/mL
same,solubility at 1 h,"[1]; natural deep eutectic solvent (NADES), organic solvent or mixture, thermodynamic from solid, solvent mixture 22 Proline–Citric Acid 1:1",672 ± 26.2 µg/mL
same,solubility at 1 h,"[1]; natural deep eutectic solvent (NADES), organic solvent or mixture, thermodynamic from solid, solvent mixture 23 Arginine–Citric Acid 1:1",414 ± 13.3 µg/mL
same,solubility at 1 h,"[1]; natural deep eutectic solvent (NADES), organic solvent or mixture, thermodynamic from solid, solvent mixture 24 Ornitine–Citric Acid1:1",425 ± 17.2 µg/mL
same,solubility at 1 h,"[1]; natural deep eutectic solvent (NADES), organic solvent or mixture, thermodynamic from solid, solvent mixture 25 Citrulline–Citric Acid 1:1",460 ± 14.4 µg/mL
same,solubility at 1 h,"[1]; natural deep eutectic solvent (NADES), organic solvent or mixture, thermodynamic from solid, solvent mixture 26 Proline–Glucose1:1",879 ± 31.3 µg/mL
same,solubility at 1 h,"[1]; natural deep eutectic solvent (NADES), organic solvent or mixture, thermodynamic from solid, solvent mixture 27 Proline–Fructose 1:1",1560 ± 43.8 µg/mL
same,solubility at 1 h,"[1]; natural deep eutectic solvent (NADES), organic solvent or mixture, thermodynamic from solid, solvent mixture 28 Proline–Choline Chloride 1:2",2640 ± 101 µg/mL
same,solubility at 1 h,"[1]; natural deep eutectic solvent (NADES), organic solvent or mixture, thermodynamic from solid, solvent mixture 29 Proline–Choline Chloride 1:3",2800 ± 103 µg/mL
same,solubility at 1 h,"[1]; natural deep eutectic solvent (NADES), organic solvent or mixture, thermodynamic from solid, solvent mixture 30 Choline Chloride–Malic Acid 1:1",702 ± 22.3 µg/mL
same,solubility at 1 h,"[1]; water, solvent Water, mean ± SD of 3",120 ± 4.9 µg/mL
same,rutin in plasma after oral dosing,[2],no rutin was detectable
same,maximum concentration,[3],1659 ng/mL
same,time of maximum concentration,[3],5 min
